According to patent US20260048155A1, “BIOCOMPATIBLE PARAHYDROGEN HYPERPOLARIZED SOLUTIONS BY PRECIPITATION AND RE-DISSOLUTION” (North Carolina State University, priority 2022, published 2026):

Assays:
Format in all cases: physicochemical
[1] = SABRE polarization build-up and T1 relaxation dynamics in SABRE solvents; details: for 13C T1 decay / polarization build-up Tb: 0.4 μT
Protocol: CD3OD is widely used as the SABRE-reaction-hosting solvent because it provides convenient means of attaining high-field NMR spectrometer lock. However, non-deuterated polarization media may be preferred for biomedical applications. For this reason, systematic relaxation dynamics studies were performed comparing CD3OD, CH3OH, and C2H5OH for SABRE-SHEATH [1-^13C]pyruvate hyperpolarization, investigating relevant parameters for these solvents and for fixed concentrations of pyruvate, SABRE catalyst, and DMSO (30 mM, 6 mM, and 40 mM, respectively). However, the ethanol sample was prepared with only 6 mM pyruvate and 10% H2O due to limited solubility. The optimal Br was similar in all investigated samples (≈0.4 μT, FIG. 4A). […] (FIG. 4B). Thus, all the experiments described below were performed using these optimized Br and Tr parameters.
The polarization build-up (Tb) and decay (T1) at 0.4 μT were similar: Tb=13.7±0.6 s versus 19.3±0.6 s; and T1=26.0±0.4 s versus 29.1±0.8 s, respectively (FIGS. 4C, 4E). P13C values were also similar; in one representative example of polarization build-up, P13C was 7.8±0.1% vs. 8.5±0.1% for CH3OH and CD3OD media, respectively, FIG. 4D. […] For ethanol, 1.4-fold lower P13C values were obtained in this mixture compared to CH3OH and CD3OD, which is rationalized by a more efficient relaxation at the SABRE-SHEATH field, FIG. 4E.
Data fitting and error propagation for relaxation and polarization build-up data presented in FIGS. 4A-4I: Data in FIGS. 4C, 4F, 4H was fitted using mono-exponential functions (solid lines) and extracted values with error of polarization build-up or relaxation are presented in bar plots (FIGS. 4D, 4E, 4G, 4I).

[2] = Lifetime (13C T1) of polarization in precipitated and aqueous samples; details: for T1 in the aqueous phase after Re-D SABRE: N=2
Protocol: To investigate the impact of precipitate relaxation in variable magnetic fields during the dissolution process, the Re-D SABRE experiment was repeated, omitting the addition of water after precipitation (i.e., the decay of ^13C HP signal in the dissolved phase of the precipitated samples was measured). […] For (iii), P13C was still much lower compared to the sample that rested at the 1.4 T magnet (setup iv), i.e., P13C=0.08±0.02% and P13C=3.4±0.9%, respectively—this signal is entirely derived from the remaining dissolved pyruvate in solution (2.3±0.6 mM in the 500 μL sample of EtAc and CH3OH, FIG. 17) not from the precipitated micro-crystalline phase. […] This observation is important because it means the Re-D SABRE process can be successfully performed at storage fields as low as 0.3 T. The rapid ^13C T1 of HP [1-^13C]pyruvate in the EtAc fraction at Earth's field, estimated to be <1.3 s, may be caused by the high catalyst: substrate ratio in the EtAc.
HP signals from the sample before or after re-dissolution were measured as a function of an additional delay td (ranging from 0 to 23 s; t=tprec+td), during which P13C was allowed to decay. At the end of td, the signal was detected either immediately (green circles, FIG. 6D, sampling the decay rate of the residual dissolved-phase pyruvate) or after the dissolution with D2O (squares, FIG. 6D, sampling the decay rate of the entire pyruvate (precipitated and dissolved) pool). Assuming a mono-exponential decay, the apparent ^13C T1 was 7.0±0.4 s or 5.3±0.2 s, respectively. […] In sharp contrast, T1 values in the aqueous phase measured after the Re-D SABRE process were 41.6±0.3 s in H2O and 102±1.3 s in D2O, FIG. 6E, using a series of pulse-detect NMR experiments with low flip angle of 9° (N=2).

[3] = Precipitation and syringe/cotton filtering of HP pyruvate at 10 mT; details: 4.5 mL EtAc, filter at 10 mT, 1 mL H2O, 90-100 s procedure, repeated three times
Protocol: As described above, filtering of non-hyperpolarized pyruvate from the precipitated solutions was tested using in-line syringe filters (FIGS. 9A-9C), and the obtained solutions of supernatant and dissolved microcrystals were analyzed with high resolution NMR. Cotton filters were also used as a performance metric for the syringe filters. Each sample was SABRE-SHEATH-polarized as described previously for three times to quantify the mean base-line hyperpolarization before precipitation (for this batch of samples, P13C=10±1% in CH3OH). Because a short lifetime of ^13C magnetization was expected at ultralow field, the precipitation procedure was performed at an elevated field of 10 mT (see setup described in section 5). At this field, proton and ^13C Zeeman levels are separated by >350 kHz, i.e., an order of magnitude greater than the dipolar spin-spin couplings present in the solid state. To this end, after the hyperpolarization procedure was completed, the sample was rapidly removed from the 0.30 μT field, depressurized, and filled into a 10-mL plastic syringe held at a 10 mT field mounted to a Luer-locked filter. After depressurization (˜10-15 s after hyperpolarization) 4.5 mL EtAc was added, the solution was stirred manually, and the filtration was started, taking a total of about 1 min following hyperpolarization. […]

SMILES: CC(=O)[13C](=O)O [[1-^13C]pyruvate]
- 13C T1 decay ([1]; 30 mM in CD3OD): 26.0 ± 0.4 s
- polarization build-up Tb ([1]; 30 mM in CD3OD): 13.7 ± 0.6 s
- 13C T1 relaxation time ([1]; 30 mM in CD3OD, 1.4 T): 86 ± 2 s
- 13C T1 decay ([1]; 30 mM in CH3OH): 29.1 ± 0.8 s
- polarization build-up Tb ([1]; 30 mM in CH3OH): 19.3 ± 0.6 s
- 13C T1 relaxation time ([1]; 30 mM in CH3OH, 1.4 T): 59.3 ± 0.8 s
- T1 relaxation time ([1]; 60 mM in CH3OH, 1.4 T): 59.3 ± 0.5 s
- T1 relaxation time ([1]; 60 mM in CH3OH, 300 nT): 34.6 ± 1.1 s
- polarization build-up time constant Tb ([1]; 60 mM in CH3OH, 300 nT): 22.0 ± 0.7 s
- 1-13C T1 ([1]; dissolved in CH3OH:catalyst mixture, Earth's field): 46.5 ± 0.9 s
- T1 in the aqueous phase after Re-D SABRE ([2]; D2O, 1.4 T): 102 ± 1.3 s
- 13C T1 in the EtAc fraction ([2]; Earth's field, estimated): < 1.3 s
- T1 in the aqueous phase after Re-D SABRE ([2]; H2O, 1.4 T): 41.6 ± 0.3 s
- apparent 13C T1, entire pyruvate (precipitated and dissolved) pool ([2]; precipitated sample, 1.4 T, detected after dissolution with D2O): 5.3 ± 0.2 s
- apparent 13C T1, residual dissolved-phase pyruvate ([2]; precipitated sample, 1.4 T, detected immediately, mono-exponential): 7.0 ± 0.4 s
- HP 13C signal after precipitation and filtering [3]: no HP ^13C signal was observed
